Source: patent publication US10639251B2, “Method for inhibiting or masking fishy odours” (Symrise AG, priority 2015, dated 2020)
Each block holds one compound with its values, some of them ahead of it.

Legend:
MOR42-3 = target: T1, MOR42-3 (Mus musculus, UniProt E9PX47); assay: Cre-luciferase reporter gene assay, concentration-response curve of azelaic acid on MOR42-3 (Dual-Glo Luciferase, transfected HANA3A cells); assay type: cell-based; conditions: agonist alone; murine olfactory receptor MOR42-3 recombinantly expressed in HANA3A cells with RTP1S, G-protein αolf, pGL4-luciferase and pRL-TK-Renilla reporters; 4 h at 37° C.; Hill fit; n=3 in duplicate; FIG. 4A left
T1 construct: CRE-luciferase readout normalized to Renilla
T1 sequence (E9PX47 1-334): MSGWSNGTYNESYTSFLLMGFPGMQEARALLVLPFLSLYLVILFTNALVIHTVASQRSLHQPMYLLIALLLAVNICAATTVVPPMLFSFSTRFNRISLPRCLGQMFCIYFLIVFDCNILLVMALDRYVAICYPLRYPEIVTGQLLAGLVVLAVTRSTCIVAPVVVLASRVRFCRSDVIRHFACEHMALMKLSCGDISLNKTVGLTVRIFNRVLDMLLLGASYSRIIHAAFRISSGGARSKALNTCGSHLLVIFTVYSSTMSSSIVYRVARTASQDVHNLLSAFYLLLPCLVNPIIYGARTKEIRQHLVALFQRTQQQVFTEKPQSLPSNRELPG
Experimental: In order to identify suitable antagonist for TMA the protocol of Zhuang and Matsunami for measuring receptor activity with the Dual-Glo Luciferase Assay System (Promega) was adapted [see Nat. Protoc. 3(9), p. 1402-1413 (2008)]. HANA3A cells were maintained under standard conditions in DMEM supplemented with 10% FBS and 100 units/ml penicillin and streptomycin at 37° C. Cells (approximately 15,000 cells/well) were plated on poly-D-lysine-coated 96-well plates (NUNC) and transfected after 24 h with the FuGENE® HD (Promega) transfection reagent according to the manufacturer's protocol. […] Expression rates of Cre-luciferase were monitored by luminescent enzymatic reactivity. Thus, luminescence signals correlate with receptor activation. […]
For statistical analysis of Cre-luciferase assay data, two-tailed unpaired Student's t-test. […] Sensory data was analyzed using non-parametric statistical tests. The overall difference between the group thresholds was determined by a Kruskal-Wallis test, followed by a Dunn post-hoc test for the respective pairwise comparisons.
Another experiment was directed to figure out whether the Timberol® block is exclusively mediated by hTAAR5. […] Then the impact of Timberol® on MOR42-3- and hOR51E1-mediated responses to the respective agonists was tested with concentrations below and above the calculated EC50 values. […]

hTAAR5 [1] = target: T2, hTAAR5 (Homo sapiens, UniProt O14804); conditions: agonist; cited from earlier work
T2 construct: expressed in transfected cells; host or cells: HANA3A cells
T2 sequence (O14804 1-337): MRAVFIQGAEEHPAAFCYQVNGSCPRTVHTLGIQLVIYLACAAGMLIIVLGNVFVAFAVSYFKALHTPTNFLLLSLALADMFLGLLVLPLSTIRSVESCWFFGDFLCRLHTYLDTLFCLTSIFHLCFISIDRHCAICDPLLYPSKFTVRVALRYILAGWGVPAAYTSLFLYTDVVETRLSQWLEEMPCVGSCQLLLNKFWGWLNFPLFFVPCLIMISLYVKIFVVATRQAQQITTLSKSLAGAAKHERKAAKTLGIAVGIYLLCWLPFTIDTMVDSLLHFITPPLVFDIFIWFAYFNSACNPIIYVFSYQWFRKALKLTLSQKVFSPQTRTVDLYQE

panelists = assay: Olfactory detection threshold of TMA, 3-alternative forced-choice, ISO 13301; assay type: in vivo, human; conditions: 1% Timberol or 0.1% Mugetanol (isointense)
Experimental: In addition, olfactory detection thresholds were assessed in aqueous solutions using a best estimate threshold approach as described in ISO 13301. In brief, samples containing different concentrations of analyte were presented in ascending order in a 3-alternative forced-choice design. Each concentration set consisted of three samples with one deviating sample containing a defined amount of trimethylamine. Samples were presented in amber vials (30 ml) coded with three digits and filled with 10 ml of solution, and panelists were required to designate the sample that differed from the others.
Thresholds of TMA were measured in buffered aqueous solution i) without additive ii) with 1% (m/m) Timberol® and iii) with 0.1% Mugetanol (isointense to 1% Timberol®). These experiments were performed separately on different days with the same panelists. In the case of testing in the presence of fragrance components (Timberol® or Mugetanol), all three samples of a given concentration set contained the same amount of fragrance components and differed only in the presence/absence of TMA. In each session, a total of 10 concentration sets ranging from […] to 1.00×10^−5% (m/m) TMA were evaluated. The concentration doubled in each step.
The aqueous solutions were buffered with TRIS (50 mM), and the pH was adjusted to 9 to have approximately 13% of the TMA in a deprotonated and thus volatile form. Furthermore, an odorless emulsifier was added to a final concentration of 3% (m/m) to dissolve Timberol®.
In a second step, the influence of Timberol® on the perception of TMA was investigated using a psychophysical approach. Therefore the detection thresholds of TMA alone and in the presence of suprathreshold concentrations of Timberol® were tested. Threshold measurements were performed in a 3-alternative forced-choice design according to ISO 13301. A total of 10 concentrations (binary dilution steps) ranging from […] to 1.00×10^−5% (m/m) TMA were examined.

hTAAR5 [2] = target: T2, hTAAR5; assay: Cre-luciferase reporter gene assay, hTAAR5-mediated responses to TMA in transfected HANA3A cells; assay type: cell-based; conditions: TMA 300 μM, putative antagonist 100 μM
Experimental: In order to identify suitable antagonist for TMA the protocol of Zhuang and Matsunami for measuring receptor activity with the Dual-Glo Luciferase Assay System (Promega) was adapted [see Nat. Protoc. 3(9), p. 1402-1413 (2008)]. HANA3A cells were maintained under standard conditions in DMEM supplemented with 10% FBS and 100 units/ml penicillin and streptomycin at 37° C. Cells (approximately 15,000 cells/well) were plated on poly-D-lysine-coated 96-well plates (NUNC) and transfected after 24 h with the FuGENE® HD (Promega) transfection reagent according to the manufacturer's protocol. In a 96-well plate, we placed 18 μl transfection reagent, 1-5 μg receptor plasmid, 2 μg pGL4-luciferase reporter, 1 μg pRL-TK-Renilla reporter, 0.5 μg G-protein αolf, 1 μg receptor transport protein (RTP1S) and 1 μg M3 muscarinic acetylcholine receptor (for hOR51E1) to ensure cell surface expression. Cells were stimulated 24 h after transfection for 4 h at 37° C. with test substances diluted in CD 293 medium (1×) (Life Technologies) with 2 mM L-glutamine (Life Technologies) added. After stimulation with test substances, recombinant hTAAR5 activation elevated cAMP and the subsequent expression of the cAMP-dependent reporter gene construct Cre-luciferase. Expression rates of Cre-luciferase were monitored by luminescent enzymatic reactivity. Thus, luminescence signals correlate with receptor activation. The Renilla luciferase reporter driven by a constitutively active TK-promoter (pRL-TK-Renilla) served as an internal control to determine cell viability and transfection efficiency. Firefly luciferase activity to the Renilla luciferase signal was normalized for all wells. The ratios of antagonistic stimulation were normalized to the ratios of agonist stimulation. Furthermore, mock-transfected cells were stimulated to exclude unspecific responses to the tested substances.
To identify blocker substances for hTAAR5-mediated responses to TMA, the Cre-luciferase reporter gene assay was used. Human TAAR5-transfected HANA3A cells were stimulated with a mix of the agonist TMA (300 μM) and 100 μM of a potential blocker substance (FIG. 1).
For more detailed information concerning the type of antagonism (competitive vs. non-competitive) in the following experiments, the pharmacological profile of Timberol® was characterized. To test the concentration dependency of the Timberol® block, a concentration-inhibition curve (FIG. 2a) was measured. The blocking effect was increased with increasing concentrations of Timberol® and decreased with increasing concentrations of the agonist TMA. The latter was reflected by a significant concentration-inhibition curve shift.

- EC50 (MOR42-3): 2670 ± 470 nM
SMILES: O=C(O)CCCCCCCC(=O)O [Azelaic acid, azelaic acid]

SMILES: CCN(C)C [DMEA, dimethylethylamine]
- activation of hTAAR5 (hTAAR5 [1]): less efficacy and potency

SMILES: CC(C)C1CCC(C(C)O)CC1 (stereo not shown) [Mugetanol, reference compound]
- influence of additive on TMA detection threshold / perception (panelists): does not influence significantly
- reduction / inhibition of hTAAR5-mediated TMA responses (hTAAR5 [2]): does not inhibit
